According to patent US8247211B2, “Glycopeptide antibiotics” (American Cyanamid Company, priority 2001, dated 2012):
In brackets after ≈: the same amount, converted by molar mass.

Key:
Enterococcus sp. = test: In vitro antibacterial evaluation: minimum inhibitory concentration (MIC), broth dilution method; format: cell-based; settings: broth dilution, 5×10^5 CFU/mL, 18 hours at 35° C.
In short: (§1)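 Broth dilution per NCCLS M7-A2 in Muller-Hinton II […], inoculum 5×10^5 CFU/mL, antibiotic tested over 64-0.06 μg/mL. MIC is taken as the lowest concentration that inhibits growth. Panel includes recent clinical isolates resistant to methicillin, penicillin and/or vancomycin.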

Escherichia coli = test: as above; format: cell-based; settings: 5×10^5 CFU/mL, 18 hours at 35° C.
In short: as §1

Staphylococcus sp. = test: as above; format: cell-based; settings: for MIC Staphylococcus aureus (ATCC 29213): strain ATCC 29213; for MIC Staphylococcus aureus (GC 1131): strain GC 1131; for MIC Staphylococcus aureus (GC 3051): strain GC 3051; for MIC Staphylococcus aureus (GC 3053): strain GC 3053; for MIC Staphylococcus aureus (GC 4541): strain GC 4541; for MIC Staphylococcus aureus (GC 4542): strain GC 4542; for MIC Staphylococcus aureus (GC 4544): strain GC 4544; for MIC Staphylococcus aureus (GC 4545): strain GC 4545
In short: as §1

Streptococcus sp. = test: as above; format: cell-based; settings: broth dilution, 5×10^5 CFU/mL, 18 hours at 35° C.
In short: as §1

[1] = tested on: Enterococcus faecalis (GC 6189), vancomycin resistant strain; test: Acute lethal infection in mice (ED50); format: in vivo; settings: female CD-1 mice, intraperitoneal challenge, intravenous dose 30 min. after infection, 7 day survival ratios
In short: (§2)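 ED50 derived from pooled 7-day survival in three separate experiments, five mice per dose level. Single intravenous dose 30 min after intraperitoneal infection of female CD-1 mice with enough bacteria to kill untreated animals in 24-48 h.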

[2] = tested on: Staphylococcus aureus-SMITH (GC 4543); test: Acute lethal infection in mice (ED50); format: in vivo; settings: female CD-1 mice, intraperitoneal challenge, intravenous dose 30 min. after infection, 7 day survival ratios
In short: as §2

[3] = broth dilution, 18 hours at 35° C.
[4] = strain GC 4543, broth dilution, 18 hours at 35° C.
[5] = strain GC 4546, broth dilution, 18 hours at 35° C.
[6] = strain GC 4547, broth dilution, 18 hours at 35° C.
[7] = strain GC 4548, broth dilution, 18 hours at 35° C.
[8] = strain GC 4549, broth dilution, 18 hours at 35° C.
[9] = strain GC 4551, broth dilution, 18 hours at 35° C.
[10] = strain GC 6257, broth dilution, 18 hours at 35° C.
[11] = broth dilution, 5×10^5 CFU/mL, 18 hours at 35° C.

## CC(c1ccccc1)C1NC(=O)CNC(=O)C(CO)NC(=O)C(C(O)C2CNC(=N)N2C2OC(CO)C(O)C(O)C2O)NC(=O)C(C(O)C2CNC(=N)N2)NC(=O)C(Cc2ccc(OC3OC(CO)C(OC4OC5COC(Cc6ccc(F)cc6)OC5C(O)C4O)C(O)C3O)cc2)NC1=O (stereo not drawn) [Example 121, Cyclo[glycyl-β-methylphenylalanyl-O-[4-O-[4,6-O-(4-fluorophenethylidene)hexopyranosyl]-hexopyranosyl]tyrosyl-3-(2-iminoimidazolidin-4-yl)seryl-3-(3-hexopyranosyl-2-iminoimidazolidin-4-yl)serylseryl]]
Enterococcus sp.
  MIC Enterococccus avium (GC 4558): 4 µg/mL (≈ 2.83 µM)
  MIC Enterococccus faecalis (ATCC 29212): 2 µg/mL (≈ 1.41 µM)
  MIC Enterococccus faecalis (GC 2691): 4 µg/mL (≈ 2.83 µM)
  MIC Enterococccus faecalis (GC 3059): 2 µg/mL (≈ 1.41 µM)
  MIC Enterococccus faecalis (GC 4552): 2 µg/mL (≈ 1.41 µM)
  MIC Enterococccus faecalis (GC 4553): 4 µg/mL (≈ 2.83 µM)
  MIC Enterococccus faecalis (GC 4554): 2 µg/mL (≈ 1.41 µM)
  MIC Enterococccus faecalis (GC 6189): 2 µg/mL (≈ 1.41 µM)
  MIC Enterococccus faecium (GC 2243): 2 µg/mL (≈ 1.41 µM)
  MIC Enterococccus faecium (GC 4556): 2 µg/mL (≈ 1.41 µM)
  MIC Enterococccus faecium (GC 4557): 2 µg/mL (≈ 1.41 µM)
  MIC Enterococcus faecalis (GC 2242): 2 µg/mL (≈ 1.41 µM)
Escherichia coli
  MIC Escherichia coli (ATCC 25922): 32 µg/mL (≈ 22.6 µM)
  MIC Escherichia coli (GC 4559): 32 µg/mL (≈ 22.6 µM)
  MIC Escherichia coli (GC 4560): 1 µg/mL (≈ 0.707 µM)
Staphylococcus sp.
  MIC Staphylococcus aureus (ATCC 29213): 1 µg/mL (≈ 0.707 µM)
  MIC Staphylococcus aureus (GC 1131): 2 µg/mL (≈ 1.41 µM)
  MIC Staphylococcus aureus (GC 3051): 1 µg/mL (≈ 0.707 µM)
  MIC Staphylococcus aureus (GC 3053): 1 µg/mL (≈ 0.707 µM)
  MIC Staphylococcus aureus (GC 4541): 1 µg/mL (≈ 0.707 µM)
  MIC Staphylococcus aureus (GC 4542): 1 µg/mL (≈ 0.707 µM)
  MIC Staphylococcus aureus (GC 4544): 2 µg/mL (≈ 1.41 µM)
  MIC Staphylococcus aureus (GC 4545): 2 µg/mL (≈ 1.41 µM)
Staphylococcus sp.; [3]
  MIC Staphylococcus aureus (ATCC 29213): 1 µg/mL (≈ 0.707 µM)
  MIC Staphylococcus aureus (GC 1131): 2 µg/mL (≈ 1.41 µM)
  MIC Staphylococcus aureus (GC 3051): 1 µg/mL (≈ 0.707 µM)
  MIC Staphylococcus aureus (GC 3053): 1 µg/mL (≈ 0.707 µM)
  MIC Staphylococcus aureus (GC 4541): 1 µg/mL (≈ 0.707 µM)
  MIC Staphylococcus aureus (GC 4542): 1 µg/mL (≈ 0.707 µM)
  MIC Staphylococcus aureus (GC 4544): 2 µg/mL (≈ 1.41 µM)
  MIC Staphylococcus aureus (GC 4545): 2 µg/mL (≈ 1.41 µM)
Staphylococcus sp.; strain GC 4543, 18 hours at 35° C.
  MIC Staphylococcus aureus-SMITH (GC 4543): 1 µg/mL (≈ 0.707 µM)
Staphylococcus sp.; [4]
  MIC Staphylococcus aureus-SMITH (GC 4543): 1 µg/mL (≈ 0.707 µM)
Staphylococcus sp.; strain GC 4546
  MIC Staphylococcus haemolyticus (GC 4546): 1 µg/mL (≈ 0.707 µM)
Staphylococcus sp.; [5]
  MIC Staphylococcus haemolyticus (GC 4546): 1 µg/mL (≈ 0.707 µM)
Staphylococcus sp.; strain GC 4547
  MIC Coagulase Negative Staphylococcus (GC 4547): 1 µg/mL (≈ 0.707 µM)
Staphylococcus sp.; [6]
  MIC Coagulase Negative Staphylococcus (GC 4547): 1 µg/mL (≈ 0.707 µM)
Staphylococcus sp.; strain GC 4548
  MIC Coagulase Negative Staphylococcus (GC 4548): 0.5 µg/mL (≈ 0.353 µM)
Staphylococcus sp.; [7]
  MIC Coagulase Negative Staphylococcus (GC 4548): 0.5 µg/mL (≈ 0.353 µM)
Staphylococcus sp.; strain GC 4549
  MIC Coagulase Negative Staphylococcus (GC 4549): 0.5 µg/mL (≈ 0.353 µM)
Staphylococcus sp.; [8]
  MIC Coagulase Negative Staphylococcus (GC 4549): 0.5 µg/mL (≈ 0.353 µM)
Staphylococcus sp.; strain GC 4551
  MIC Coagulase Negative Staphylococcus (GC 4551): 2 µg/mL (≈ 1.41 µM)
Staphylococcus sp.; [9]
  MIC Coagulase Negative Staphylococcus (GC 4551): 2 µg/mL (≈ 1.41 µM)
Staphylococcus sp.; strain GC 6257
  MIC Coagulase Negative Staphylococcus (GC 6257): 1 µg/mL (≈ 0.707 µM)
Staphylococcus sp.; [10]
  MIC Coagulase Negative Staphylococcus (GC 6257): 1 µg/mL (≈ 0.707 µM)
Streptococcus sp.
  MIC Streptococcus agalactiae (GC 4564): 0.25 µg/mL (≈ 0.177 µM)
  MIC Streptococcus pneumoniae (GC 1894): <0.06 µg/mL
  MIC Streptococcus pneumoniae (GC 4565): <0.06 µg/mL
  MIC Streptococcus pneumonine (ATCC 6301): <0.06 µg/mL
  MIC Streptococcus pyogenes (GC 4563): 0.25 µg/mL (≈ 0.177 µM)
[1]
  median effective dose (ED50), Enterococcus faecalis (GC 6189): 0.5 mg/kg
[2]
  median effective dose (ED50), Staphylococcus aureus-SMITH (GC 4543): 0.32 mg/kg

## Cc1cccc(C2OCC3OC(OC4C(CO)OC(Oc5ccc(CC6NC(=O)C(C(C)c7ccccc7)NC(=O)CNC(=O)C(CO)NC(=O)C(C(O)C7CNC(=N)N7C7OC(CO)C(O)C(O)C7O)NC(=O)C(C(O)C7CNC(=N)N7)NC6=O)cc5)C(O)C4O)C(O)C(O)C3O2)c1 (stereo not drawn) [Example 135, Cyclo[glycyl-β-methylphenylalanyl-O-[4-O-[4,6-O-(3-methylbenzylidene)hexopyranosyl]-hexopyranosyl]tyrosyl-3-(2-iminoimidazolidin-4-yl)seryl-3-(3-hexopyranosyl-2-iminoimidazolidin-4-yl)serylseryl]]
Enterococcus sp.
  MIC Enterococccus avium (GC 4558): 2 µg/mL (≈ 1.43 µM)
  MIC Enterococccus faecalis (ATCC 29212): 2 µg/mL (≈ 1.43 µM)
  MIC Enterococccus faecalis (GC 2691): 2 µg/mL (≈ 1.43 µM)
  MIC Enterococccus faecalis (GC 3059): 2 µg/mL (≈ 1.43 µM)
  MIC Enterococccus faecalis (GC 4552): 2 µg/mL (≈ 1.43 µM)
  MIC Enterococccus faecalis (GC 4553): 2 µg/mL (≈ 1.43 µM)
  MIC Enterococccus faecalis (GC 4554): 2 µg/mL (≈ 1.43 µM)
  MIC Enterococccus faecalis (GC 6189): 2 µg/mL (≈ 1.43 µM)
  MIC Enterococccus faecium (GC 2243): 2 µg/mL (≈ 1.43 µM)
  MIC Enterococccus faecium (GC 4556): 2 µg/mL (≈ 1.43 µM)
  MIC Enterococccus faecium (GC 4557): 2 µg/mL (≈ 1.43 µM)
  MIC Enterococcus faecalis (GC 2242): 2 µg/mL (≈ 1.43 µM)
Escherichia coli
  MIC Escherichia coli (ATCC 25922): 32 µg/mL (≈ 22.9 µM)
  MIC Escherichia coli (GC 4559): 32 µg/mL (≈ 22.9 µM)
  MIC Escherichia coli (GC 4560): 0.5 µg/mL (≈ 0.358 µM)
Staphylococcus sp.; [11]
  MIC Coagulase Negative Staphylococcus (GC 4547): 1 µg/mL (≈ 0.716 µM)
  MIC Coagulase Negative Staphylococcus (GC 4548): 0.5 µg/mL (≈ 0.358 µM)
  MIC Coagulase Negative Staphylococcus (GC 4549): 0.5 µg/mL (≈ 0.358 µM)
  MIC Coagulase Negative Staphylococcus (GC 4551): 1 µg/mL (≈ 0.716 µM)
  MIC Coagulase Negative Staphylococcus (GC 6257): 0.5 µg/mL (≈ 0.358 µM)
  MIC Staphylococcus aureus-SMITH (GC 4543): 1 µg/mL (≈ 0.716 µM)
  MIC Staphylococcus haemolyticus (GC 4546): 0.5 µg/mL (≈ 0.358 µM)
Staphylococcus sp.
  MIC Staphylococcus aureus (ATCC 29213): 1 µg/mL (≈ 0.716 µM)
  MIC Staphylococcus aureus (GC 1131): 1 µg/mL (≈ 0.716 µM)
  MIC Staphylococcus aureus (GC 3051): 1 µg/mL (≈ 0.716 µM)
  MIC Staphylococcus aureus (GC 3053): 1 µg/mL (≈ 0.716 µM)
  MIC Staphylococcus aureus (GC 4541): 1 µg/mL (≈ 0.716 µM)
  MIC Staphylococcus aureus (GC 4542): 1 µg/mL (≈ 0.716 µM)
  MIC Staphylococcus aureus (GC 4544): 2 µg/mL (≈ 1.43 µM)
  MIC Staphylococcus aureus (GC 4545): 1 µg/mL (≈ 0.716 µM)
Staphylococcus sp.; [3]
  MIC Staphylococcus aureus (ATCC 29213): 1 µg/mL (≈ 0.716 µM)
  MIC Staphylococcus aureus (GC 1131): 1 µg/mL (≈ 0.716 µM)
  MIC Staphylococcus aureus (GC 3051): 1 µg/mL (≈ 0.716 µM)
  MIC Staphylococcus aureus (GC 3053): 1 µg/mL (≈ 0.716 µM)
  MIC Staphylococcus aureus (GC 4541): 1 µg/mL (≈ 0.716 µM)
  MIC Staphylococcus aureus (GC 4542): 1 µg/mL (≈ 0.716 µM)
  MIC Staphylococcus aureus (GC 4544): 2 µg/mL (≈ 1.43 µM)
  MIC Staphylococcus aureus (GC 4545): 1 µg/mL (≈ 0.716 µM)
Staphylococcus sp.; [4]
  MIC Staphylococcus aureus-SMITH (GC 4543): 1 µg/mL (≈ 0.716 µM)
Staphylococcus sp.; [5]
  MIC Staphylococcus haemolyticus (GC 4546): 0.5 µg/mL (≈ 0.358 µM)
Staphylococcus sp.; [6]
  MIC Coagulase Negative Staphylococcus (GC 4547): 1 µg/mL (≈ 0.716 µM)
Staphylococcus sp.; [7]
  MIC Coagulase Negative Staphylococcus (GC 4548): 0.5 µg/mL (≈ 0.358 µM)
Staphylococcus sp.; [8]
  MIC Coagulase Negative Staphylococcus (GC 4549): 0.5 µg/mL (≈ 0.358 µM)
Staphylococcus sp.; [9]
  MIC Coagulase Negative Staphylococcus (GC 4551): 1 µg/mL (≈ 0.716 µM)
Staphylococcus sp.; [10]
  MIC Coagulase Negative Staphylococcus (GC 6257): 0.5 µg/mL (≈ 0.358 µM)
Streptococcus sp.
  MIC Streptococcus agalactiae (GC 4564): 0.25 µg/mL (≈ 0.179 µM)
  MIC Streptococcus pneumoniae (GC 1894): <0.06 µg/mL
  MIC Streptococcus pneumoniae (GC 4565): <0.06 µg/mL
  MIC Streptococcus pneumonine (ATCC 6301): <0.06 µg/mL
  MIC Streptococcus pyogenes (GC 4563): 0.25 µg/mL (≈ 0.179 µM)
[1]
  median effective dose (ED50), Enterococcus faecalis (GC 6189): 0.26 mg/kg
[2]
  median effective dose (ED50), Staphylococcus aureus-SMITH (GC 4543): 0.07 mg/kg
